Where “and” joins values, the source holds several entries; their conditions need not be identical. Equal values may be shown once.
Tests used:
[1] = Stability of hyaluronan chloramide on standing (DS by NMR); format: physicochemical; conditions: initial DS 85%
Protocol: 5 g of hyaluronan (Mw 2200 kg·mol^−1) were dissolved in 250 ml of distilled water. Subsequently, 2 ml of acetic acid were added and the solution was stirred at the temperature of 20° C. for 15 minutes. Then, a sodium salt of dichloroisocyanuric acid in the amount of 3.2 g (1 eq.) was added. Then, the mixture was stirred at a temperature of 20° C. for 48 hours. Subsequently, the mixture was precipitated by 2.5 litres of isopropanol and filtered. The solid portion was washed with 2 litres of isopropanol, whereupon it was vacuum dried for 20 hours. DS 85% (determined from NMR). The NMR solution (7 mg of the product in 0.7 ml of D2O) was measured after another 5 days of standing at 20° C. The DS value was determined as 84%. The solid portion in the form of powder was let stand at 20° C. for 100 days and after that the sample was dissolved in D2O. The DS value was determined as 84%.

CVB3 (Nancy) = assay: Testing of antiviral activity based on the plaque reduction; format: cell-based; conditions: for PFU on PD, Average: average of 5 repeats; for PFU on PD, Average / PFU on PD: VERO cells; for PFU on PD: single Petri dishes (5 repeats), 5 hours incubation, listed as HA chloramide
Protocol: (§1) Number of repeats −5, tested substance prepared according to Example 19, virus subject to testing: CVB3 (Nancy) in the concentration of 3×10E7, 5 PFU/ml, VERO cellular substrate
(§2) After having been subject to 10^7-fold dilution in the volume of 1.5 ml, the virus was adsorbed on the cell substrate in Petri dishes for 30 minutes. The negative control contained PBS without viruses. Afterwards, the virus was removed by suction and the cells were interlayered by the tested substance (or by HA and PBS contained in the negative control materials), incubation at 37° C. and in the presence of 5% of CO2, for 5 hours. The cells were washed with PBS and covered by a layer of a medium containing EMEM supplemented with 5% of inactivated FBS and 0.75% of agarose. The incubation in an environment containing 5% of CO2 at 37° C. for 4 days. Subsequently, the medium was removed, the cells were stained by a crystal violet dye and the counts of plaques were determined. During the test, the antiviral activity was proportional to the reduction of the number of plaques.

VERO cellular substrate = assay: Plaque test groups without virus (examination of the cells / of toxicity); format: cell-based, Cercopithecus aethiops; conditions: 1% in PBS, no virus
Protocol: as §1, §2

[2] = single Petri dishes (5 repeats)

| Substance | DS value of the NMR solution after standing ([1]; 7 mg of product in 0.7 ml D2O, another 5 days of standing at 20° C.) [%] | DS value of the solid powder after standing ([1]; powder let stand at 20° C. for 100 days, then dissolved in D2O) [%] | PFU on PD, Average (CVB3 (Nancy); 0.1% in PBS) [PFU] | PFU on PD (CVB3 (Nancy); 0.1% in PBS) | PFU on PD, Average (CVB3 (Nancy); 0.5% in PBS) [PFU] | PFU on PD (CVB3 (Nancy); 0.5% in PBS) | PFU on PD, Average (CVB3 (Nancy); 1% in PBS) [PFU] | inhibition of the viral growth compared to the standard with HA (CVB3 (Nancy); Tests 1, 2 and 3 (0.1, 0.5, 1% in PBS), more efficient with increasing concentration) | PFU on PD, Average, Examination of the cells with HA (VERO cellular substrate; average of 5 repeats) [PFU] | PFU on PD, Average, Examination of toxicity (VERO cellular substrate; average of 5 repeats) [PFU] | PFU on PD, Examination of the cells with HA (VERO cellular substrate; [2]) [PFU] | PFU on PD, Examination of toxicity (VERO cellular substrate; [2]) [PFU] |
| --- | --- | --- | --- | --- | --- | --- | --- | --- | --- | --- | --- | --- |
| Hyaluronan Chloramide [Example 16] | 84 | 84 |  |  |  |  |  |  |  |  |  |  |
| Hyaluronan Chloramide [Example 19] |  |  | 7.8 | 5 PFU and 7 PFU and 10 PFU and 8 PFU and 9 PFU | 7.2 | 8 PFU and 5 PFU and 7 PFU | 2.6 | inhibition of the viral growth | 0 | 0 | 0 | 0 |
| Hyaluronic acid [HA, reference compound] |  |  |  |  |  |  | 10.4 |  |  |  |  |  |

— patent US20210332161A1, “CHLORINATED DERIVATIVE OF HYALURONIC ACID, METHOD OF PREPARATION THEREOF, A COMPOSITION CONTAINING THE DERIVATIVE, AND USE THEREOF” (CONTIPRO A.S., priority 2018, published 2021)
